# US20160176880A1, “SUBSTITUTED IMIDAZO[1,2-A]PYRAZINECARBOXAMIDES AND USE THEREOF” (BAYER PHARMA AKTIENGESELLSCHAFT, priority 2013, published 2016)
# Molecular target: T1, recombinant guanylate cyclase reporter cell line (Rattus norvegicus, UniProt P19686+P20595)
# T1 construct: expressed in transfected cells
# T1 sequence (P19686 1-690): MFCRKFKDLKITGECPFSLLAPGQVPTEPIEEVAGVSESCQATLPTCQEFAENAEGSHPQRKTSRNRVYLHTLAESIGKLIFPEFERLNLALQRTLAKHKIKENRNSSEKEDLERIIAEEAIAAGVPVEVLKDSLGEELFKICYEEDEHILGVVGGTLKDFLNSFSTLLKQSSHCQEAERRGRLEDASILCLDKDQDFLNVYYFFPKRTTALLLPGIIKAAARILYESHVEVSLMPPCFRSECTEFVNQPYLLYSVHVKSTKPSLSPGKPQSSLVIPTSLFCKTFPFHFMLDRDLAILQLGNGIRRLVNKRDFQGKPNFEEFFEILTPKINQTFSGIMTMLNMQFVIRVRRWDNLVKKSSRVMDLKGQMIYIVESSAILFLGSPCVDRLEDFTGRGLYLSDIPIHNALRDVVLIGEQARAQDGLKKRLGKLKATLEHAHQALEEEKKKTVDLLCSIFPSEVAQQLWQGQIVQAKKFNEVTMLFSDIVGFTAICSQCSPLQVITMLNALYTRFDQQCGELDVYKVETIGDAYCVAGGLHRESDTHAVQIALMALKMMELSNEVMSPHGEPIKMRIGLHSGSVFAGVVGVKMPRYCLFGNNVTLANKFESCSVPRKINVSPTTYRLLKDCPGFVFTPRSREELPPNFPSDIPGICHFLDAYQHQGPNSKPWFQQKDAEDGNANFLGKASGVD
# T1 sequence (P20595 1-619): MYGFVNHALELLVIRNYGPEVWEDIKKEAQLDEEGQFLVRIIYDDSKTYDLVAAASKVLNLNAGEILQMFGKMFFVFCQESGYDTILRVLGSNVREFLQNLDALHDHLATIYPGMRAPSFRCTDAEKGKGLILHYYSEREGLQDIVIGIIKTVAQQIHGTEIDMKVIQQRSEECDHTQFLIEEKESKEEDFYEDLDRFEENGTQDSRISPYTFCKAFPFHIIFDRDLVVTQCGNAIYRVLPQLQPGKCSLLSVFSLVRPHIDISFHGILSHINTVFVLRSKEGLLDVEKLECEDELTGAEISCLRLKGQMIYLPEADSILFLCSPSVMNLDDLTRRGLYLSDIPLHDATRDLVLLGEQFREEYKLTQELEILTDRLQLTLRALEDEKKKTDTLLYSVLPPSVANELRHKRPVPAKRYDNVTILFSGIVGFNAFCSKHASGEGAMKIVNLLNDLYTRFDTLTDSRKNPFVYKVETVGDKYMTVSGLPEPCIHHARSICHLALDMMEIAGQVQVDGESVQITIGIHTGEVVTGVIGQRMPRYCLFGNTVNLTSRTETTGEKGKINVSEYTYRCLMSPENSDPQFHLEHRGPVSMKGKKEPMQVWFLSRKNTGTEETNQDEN
# Experiment: Effect on a recombinant guanylate cyclase reporter cell line
# Format: cell-based
# Conditions: MEC = minimum effective concentration; in some cases mean values for individual determinations
# Description: B-2. Effect on a Recombinant Guanylate Cyclase Reporter Cell Line
# The cellular action of the compounds of the invention is determined using a recombinant guanylate cyclase reporter cell line, as described in F. Wunder et al., Anal. Biochem. 339, 104-112 (2005).
# Representative MEC values (MEC=minimum effective concentration) for the compounds of the invention are shown in the table below (in some cases as mean values for individual determinations): […]
row,SMILES,MEC
1,"CCC(CO)(CO)NC(=O)c1c(C)nc2c(OCc3c(F)cccc3F)nc(C)cn12 [Example 35, 8-[(2,6-difluorobenzyl)oxy]-N-[1-hydroxy-2-(hydroxymethyl)butan-2-yl]-2,6-dimethylimidazo[1,2-a]pyrazine-3-carboxamide]",3 µM
2,"Cc1nc2c(OCC3CCCCC3)nccn2c1C(=O)NCc1ccc(F)c(F)c1 [Example 47, 8-(Cyclohexylmethoxy)-N-(3,4-difluorobenzyl)-2-methylimidazo[1,2-a]pyrazine-3-carboxamide]",1.0 µM
3,"Cc1cn2c(C(=O)NC(C#N)c3ccc(Cl)cc3)c(C)nc2c(OCc2c(F)cccc2F)n1 (racemic) [Example 46, rac-N-[(4-chlorophenyl)(cyano)methyl]-8-[(2,6-difluorobenzyl)oxy]-2,6-dimethylimidazo[1,2-a]pyrazine-3-carboxamide]",10 µM
4,"Cc1cn2c(C(=O)NC(CCC(F)(F)C(F)(F)F)C(C)(C)O)c(C)nc2c(OCc2c(F)cccc2F)n1 (single isomer, unassigned; ent-8) [Example 29, ent-8-[(2,6-difluorobenzyl)oxy]-2,6-dimethyl-N-(6,6,7,7,7-pentafluoro-2-hydroxy-2-methylheptan-3-yl)imidazo[1,2-a]pyrazine-3-carboxamide]",1 µM
5,"Cc1cn2c(C(=O)NC3(c4ccc(F)c(F)c4)CC3)c(C)nc2c(OCc2c(F)cccc2F)n1 [Example 4, 8-[(2,6-Difluorobenzyl)oxy]-N-[1-(3,4-difluorophenyl)cyclopropyl]-2,6-dimethylimidazo[1,2-a]pyrazine-3-carboxamide]",1 µM
6,"Cc1cn2c(C(=O)NCCC3(O)CCCC3)c(C)nc2c(OCc2c(F)cccc2F)n1 [Example 12, 8-[(2,6-Difluorobenzyl)oxy]-N-[2-(1-hydroxycyclopentyl)ethyl]-2,6-dimethylimidazo[1,2-a]pyrazine-3-carboxamide]",1 µM
7,"Cc1cn2c(C(=O)NCc3ccccc3-c3cccnc3)c(C)nc2c(OCc2c(F)cccc2F)n1 [Example 21, 8-[(2,6-difluorobenzyl)oxy]-2,6-dimethyl-N-[2-(pyridin-3-yl)benzyl]imidazo[1,2-a]pyrazine-3-carboxamide]",3 µM
8,"Cc1cn2c(C(=O)NCC3(O)CC3)c(C)nc2c(OCc2c(F)cccc2F)n1 [Example 32, 8-[(2,6-difluorobenzyl)oxy]-N-[(1-hydroxycyclopropyl)methyl]-2,6-dimethylimidazo[1,2-a]pyrazine-3-carboxamide]",1 µM
9,"Cc1cn2c(C(=O)NCCN(C)C)c(C)nc2c(OCc2c(F)cccc2F)n1 [Example 19, 8-[(2,6-difluorobenzyl)oxy]-N-[2-(dimethylamino)ethyl]-2,6-dimethylimidazo[1,2-a]pyrazine-3-carboxamide]",3 µM
10,"Cc1cn2c(C(=O)NC3CC(C)(C)NC(C)(C)C3)c(C)nc2c(OCc2c(F)cccc2F)n1 [Example 16, 8-[(2,6-difluorobenzyl)oxy]-2,6-dimethyl-N-(2,2,6,6-tetramethylpiperidin-4-yl)imidazo[1,2-a]pyrazine-3-carboxamide]",3 µM
11,"Cc1cn2c(C(=O)NCC(C)(N)CC(F)F)c(C)nc2c(OCc2c(F)cccc2F)n1 (single isomer, unassigned; enantiomer a) [Example 41, ent-N-(2-Amino-4,4-difluoro-2-methylbutyl)-8-[(2,6-difluorobenzyl)oxy]-2,6-dimethylimidazo[1,2-a]pyrazine-3-carboxamide (enantiomer A)]",0.65 µM
12,"Cc1cn2c(C(=O)Nc3c(C)nn(CCO)c3C)c(C)nc2c(OCc2c(F)cccc2F)n1 [Example 18, 8-[(2,6-difluorobenzyl)oxy]-N-[1-(2-hydroxyethyl)-3,5-dimethyl-1H-pyrazol-4-yl]-2,6-dimethylimidazo[1,2-a]pyrazine-3-carboxamide]",3 µM
